The nature of series [1]: Antihemolytic potency against hypotonic lysis-induced erythrocytes (unknown origin) assessed as stabilization. Format: functional, Erythrocyte.
Series [2] in a line: Inhibition of mouse brain synaptosomal Lysophosphatidylcholine acyltransferase using substrate [32P]lysophosphatidylcholine and oleoyl-CoA.
Series [3] can be described thus: Molar volume, Vm of the compound at zero temperature. Format: physicochemical.

For orientation: pKi means the Ki on a negative log10 scale, so that one unit is a factor of ten. Lower therefore signals a large Ki. For the compound `CCCCCCCCO` [OCTANOL], the pAH50 in series [1] was 3.63. In series [2], this compound returned a pKi of 2.77. Also, the Vm in series [3] is reported as 1.295 ×10⁻⁴ m3/mol.

As for `CCCCCc1cc(O)c2c(c1)OC(C)(C)[C@@H]1CCC(C)=C[C@@H]21` [DRONABINOL], the pAH50 in series [1] was 4.1. For the same compound, the negative-log Ki (pKi) in series [2] is 6.52. The compound also yielded a Vm in series [3] of 2.687 ×10⁻⁴ m3/mol.

In the case of `Oc1ccccc1Cl` [2-CHLOROPHENOL], the pAH50 in series [1] was determined as 2.94. The compound also showed a pKi in series [2] of 2.48. In series [3], this compound returned a Vm of 8.975 ×10⁻⁵ m3/mol.

For `CC(C)[C@]12CC(=O)[C@H](C)[C@H]1C2`, the pAH50 in series [1] is listed as 3. This compound also registered a pKi in series [2] of 3.15. Also, the Vm in series [3] is 1.132 ×10⁻⁴ m3/mol.

Turning to `CCCCCCCCCO` [NONANOL], the pAH50 in series [1] worked out at 4.39. This compound registered a pKi in series [2] of 3.24.

Take `CCCCCCCCCCO` [DECANOL]: the pAH50 in series [1] is 5. In addition, the pKi in series [2] is 3.77. Moreover, in series [3], the Vm came out at 1.576 ×10⁻⁴ m3/mol.

In the case of `CCCCCc1cc(O)c2c(c1)OC(C)(C)c1ccc(C)cc1-2` [CANNABINOL], the pAH50 in series [1] turned out to be 4.4. Also, the pKi in series [2] worked out at 3.26. Also, the Vm in series [3] is given as 2.601 ×10⁻⁴ m3/mol.

For `CCCCCc1cc(O)c(C/C=C(\C)CCC=C(C)C)c(O)c1` [CANNABIGEROL], the pAH50 in series [1] amounted to 4.66. Moreover, the pKi in series [2] amounted to 3.59. Moreover, the Vm in series [3] stood at 2.861 ×10⁻⁴ m3/mol.

Take `CCCCCc1cc(O)c2c(c1)OC(C)(C)[C@@H]1CC=C(C)C[C@@H]21` [DELTA-8-TETRAHYDROCANNABINOL]: the pAH50 in series [1] was 3.85. This compound had a pKi in series [2] of 4.24. Besides, in series [3], the Vm is 2.687 ×10⁻⁴ m3/mol.

On to `CCCCCCc1cc(O)c2c(c1)OC(C)(C)C1=C2CC(C)CC1` (centres undefined), for which, in series [1], the pAH50 is 4.03. In series [2], this compound gave a pKi of 3.6. For the same compound, the Vm in series [3] is reported as 2.828 ×10⁻⁴ m3/mol.

With `CN(C)CCCN1c2ccccc2Sc2ccc(Cl)cc21` [CHLORPROMAZINE], in series [1], the pAH50 was 5.09. The negative-log Ki (pKi) in series [2] is given as 3.1. The same compound showed a Vm in series [3] of 2.406 ×10⁻⁴ m3/mol.

Consider `CC1=C(/C=C/C(C)=C/C=C/C(C)=C/CO)C(C)(C)CCC1` [RETINOL], for which the pAH50 in series [1] is 5.49. The compound also displayed a negative-log Ki (pKi) in series [2] of 3.82. This compound had a Vm in series [3] of 2.865 ×10⁻⁴ m3/mol.

`Oc1ccc(Cl)cc1` [PARACHLOROPHENOL]: the pAH50 in series [1] was found to be 3.13. The compound also came in with a negative logarithm of the Ki (pKi) in series [2] of 2.74. The same compound returned a Vm in series [3] of 8.975 ×10⁻⁵ m3/mol.

As for `CCCCCc1cc(O)c2c(c1)OC(C)(C)[C@@H]1CCC(CO)=C[C@@H]21`, the pAH50 in series [1] is reported as 3.72. Further, the pKi in series [2] worked out at 4.07. This compound also gave a Vm in series [3] of 2.746 ×10⁻⁴ m3/mol.

For the compound `CCCCCCCCCCCCO` [DODECANOL], the pAH50 in series [1] is 5.27. The compound further gave a pKi in series [2] of 3.39. In series [3], this compound returned a Vm of 1.858 ×10⁻⁴ m3/mol.
